Experimental data taken from patent US20240041813A1, “VERY-LONG-CHAIN POLYUNSATURATED FATTY ACIDS, ELOVANOID HYDROXYLATED DERIVATIVES, AND METHODS OF USE” (priority 2020, published 2024).
“Also recorded” adds a separate entry of the source.

Key:
[1] = system: ACE-2 receptor; assay: ACE-2 protein abundance by Jess capillary western in human alveoli in culture; type: cell-based; settings: effect dependent on addition of IL-1b
Description: The Simple Protein platform Jess allows running a protein mixture in a capillary system that also serves as a probing matrix for the antibodies. This platform obviates the need to transfer the size-separated proteins onto a membrane with the consequent loss of sample. The sample amount that can be run in Jess is several times smaller than that required for Western blots. Therefore, high throughput is facilitated in cell cultures. The antibodies to this protein have been validated in our laboratory.
c.1.b. Protein abundance using Jess technology. The Simple Protein platform Jess allows running a protein mixture in a capillary electrophoretic system as a probing matrix for the antibodies (we refer to western blot as “Jess WB” here). This platform obviates the need to transfer the size-separated proteins onto a membrane with a potential loss of sample. The sample size run in Jess is several times smaller than that for classical WB. (400 ng protein/capillary column vs. 10 or more μg for classical WB). The proteins we assess will include ACE2, Furin, ADAM17, DPP4, TMPRSS2, protein surfactant D, and Cathepsin L. In addition, senescence and SASP proteins will also be analyzed. […]
ACE2 Protein abundance using Jess technology. […] Soluble protein concentration was determined by BCA assay (Thermo Fisher Scientific, Cat. 23225) and 0.4 μg used/reaction. […]

[2] = system: ACE2; assay: Rat cornea alkali burn: corneal RNA-seq, Ace2 gene expression; type: in vivo; settings: rat cornea after alkali burn; eye drops 3 times/day for 14 days; RNA-seq day 14
Method: (§1) The rats were anesthetized by intraperitoneal injection of Ketamine (50-100 mg/kg) plus xylazine (5-10 mg/kg). A 4 mm diameter filter paper soaked in 1 N NaOH was placed on the central cornea of the right eye for 45 seconds, and then the eye was thoroughly washed with […] of saline. After injury, the rats were randomly divided into five treatment groups: vehicle; lipoxin A4 (LXA4) from Cayman Chemical (Ann Arbor, MI, USA); R,R Resolvin D6 isomer (RvD6i), R,R neuroprotection D (NPD1), and elovanoid (ELV)-N32. All lipid solutions were prepared at the final concentration of […] using PBS with the minimal contamination of ethanol by evaporating the ethanol and immediately dissolve the lipids in PBS, then vortex well for 2 min. Topical administration (20 μl) was done 3×/day for 14 days. The experiments were double-blinded with the lipid mediators coded during the whole experiments. At the end of the study, when all data was collected, the code was opened.
(§2) Injured corneas (n=5/condition) were harvested and homogenized with TRIzol (Thermo Fisher Scientific) on ice with a glass Dounce homogenizer. RNA sequencing was performed as described^14. Briefly, after mRNA extraction and determination of purity, 8 ng of total RNA was reverse transcribed, and total cDNAs were amplified using ISPCR primer, and the library was made with the Nextera XT DNA library preparation kit (Illumina, San Diego, CA, USA). The libraries were pooled with the same molarity and sequenced using the NextSeq 500/550 High Output Kit v2 (75 cycles, Illumina). After demultiplexing, RNA-seq data were aligned to the Rattus Norvegicus reference genome (.ensembl.org/pub/release-98/fasta/rattus_norvegicus/dna/) using the Subread package v2.0.1 alignment function39. The BAM files for sequencing data alignment were counted using featureCounts function of Subread tool^40 using the macOS Catalina. The raw count data were subjected to differential gene expression analysis using DESeq2 package for R^41 with the vehicle group as reference. The adjusted p-values were named as the false discover rate (FDR).

[3] = system: TMPRSS2; assay: TMPRSS2 mRNA by Taqman qPCR in human alveolar cells; type: cell-based; settings: in the presence of IL1β
Method: Real-Time PCR using Taqman probes and SYBR green assay. cDNA was produced using lug of total RNA extracted by RNAeasy (Qiagen, Hilden Germany, cat #74104). The first strand of cDNA was produced using iScript™ Reverse Transcription Supermix for RT-qPCR (BioRad cat #1708840). The quantification of Sirt 1, RNF-146, Bcl2, BcL-xl was performed using SYBRgreen assay with primers designed in house (Table 1) using SsoAdvanced Universal SYBR Green Supermix (Biorad cat #1725270). The quantification of ACE2 and TMPRSS2 mRNA was performed using Taqman probes (Biorad cat #qHsaCEP0051563 & qHsaCIP0028919 respectively) labeled with FAM and standardized using PGK1 probe labeled with HEX (Biorad cat #qHsaCEP0050174).

[4] = system: injured rat cornea; assay: Rat cornea alkali burn: corneal RNA-seq, cytokine storm, NFkB/inflammation, senescence, integrin and protease genes; type: in vivo
Method: as §1, §2

[5] = system: receptor-binding domain (RBD) of the SARS-CoV-2 spike; type: cell-based, human
[6] = system: Alexa 594-RBD; type: in vivo; settings: rat cornea after alkali burn; 14 days treatment; Alexa 594-RBD 1 μg/eye, 3 times at day 15, examined a day later
[7] = rat cornea, RNA-seq 14 days after injury

## CC/C=C\CC(O)\C=C/C=C/C=C/C(O)C/C=C\C/C=C\CCCCCCCCCCCCC(=O)O [ELV-N32, (14Z,17Z,20R,21E,23E,25Z,27S,29Z)-20,27-dihydroxydo-triaconta-14,17,21,23,25,29-hexaenoic acid]
[1]
  expression of the ACE-2 receptor (protein abundance, Jess): downregulate
[2]
  Ace2 gene expression levels: decrease
[3]
  TMPRSS2 expression: decreased
[4]; cornea injury model (FIG. 57)
  Furin expression: remarkably decreases
[4]; [7]
  51 injury-upregulated genes (cytokines, SASP, NFkB inflammatory): most are inhibited
  Il6 and Vegfa expression: reduced
  integrin gene expression (Itga5 and Itgb 1): significantly decreased; also recorded: decrease
  transcriptomic profile in PCA plot relative to control cornea: nearest to the normal cornea
[4]; rat cornea, RNA-seq normalized counts, 14 days after injury
  Cdkn2a gene expression (p16INK4a): decrease
[5]
  RBD of the SARS-CoV-2 spike entrance / internalized RBD: diminishes
  RBD protein internalization (RBD located below the membrane line): decrease
[6]
  binding of Alexa 594-RBD to injured cornea: decrease; also recorded: counteracted
